Test results as given in US20260217687A1 (NeoPhore Limited, priority 2023, published 2026).

Molecular target: T1, recombinant N-terminal MLH1 (residues 15-340) (Homo sapiens, UniProt P40692)
T1 construct: recombinant N-terminal MLH1 (residues 15-340)
T1 sequence (P40692 15-340): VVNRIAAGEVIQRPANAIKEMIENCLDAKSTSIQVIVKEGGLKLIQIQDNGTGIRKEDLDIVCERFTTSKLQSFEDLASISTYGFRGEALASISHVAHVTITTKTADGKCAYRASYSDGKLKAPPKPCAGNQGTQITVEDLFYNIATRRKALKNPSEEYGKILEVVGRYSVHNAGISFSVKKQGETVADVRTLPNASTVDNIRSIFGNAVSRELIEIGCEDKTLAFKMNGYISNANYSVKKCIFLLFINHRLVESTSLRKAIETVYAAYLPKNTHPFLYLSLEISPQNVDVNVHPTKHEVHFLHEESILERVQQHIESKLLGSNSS
Test: Fluorescence Polarisation Assay for MLH1
Type: binding
Details: 100 nM N-terminal MLH1, 5 nM probe compound
Method: Fluorescence Polarisation Assay for MLH1
Test compounds, as 10 mM DMSO stocks, were dispensed into a 384-well Low Flange Black Flat Bottom Polystyrene Non-binding Surface plate (Corning®, item number 3575) using a Labcyte Echo acoustic liquid handler. […] 20 μL of a 2× solution (200 nM) of recombinant N-terminal MLH1 (residues 15-340) in assay buffer (25 mM HEPES, pH 7.5, 250 mM NaCl, 10 mM MgCl2, 0.01% Triton X-100, 5 mM Dithiothreitol) was added to all wells in columns 1-23 and 20 μL assay buffer was added to all wells in column 24 using an E1-ClipTip pipette (ThermoFisher). Plates were centrifuged for 1 minute at 250 xg and were incubated at room temperature for 30 minutes prior to the addition of 20 μL of 2×(10 nM) of 5-((5-(4-((2-(2-(Benzyloxy)-4,6-dihydroxybenzoyl)isoindolin-5-yl)methyl)piperazin-1-yl)pentyl)carbamoyl)-2-(6-(dimethylamino)-3-(dimethyliminio)-3H-xanthen-9-yl)benzoate (referred to hereinafter as “probe compound”) in assay buffer (prepared from a 1 mM DMSO stock) with an E1-ClipTip pipette (ThermoFisher). The final concentration of N-terminal MLH1 was 100 nM and the final concentration of the probe compound was 5 nM. Compound plates were centrifuged for 1 minute at 250 xg for 1 minute and immediately read on a PheraStar FSX (fitted with 384-well aperture spoon and 590 675 675 FP optic module). The gain and focus were adjusted before each plate was read so that the polarisation of a no enzyme control (column 24) was equal to 35 mP. Data were normalised against the no inhibitor controls (column 23) and no enzyme controls (column 24).

IC50 [nM]	SMILES
100 to 1000	O=C(c1c(O)cc(C(F)F)cc1OCc1ccccc1)N1CCc2ncnc(NC3CCOC3)c2C1 (stereo not shown) [Example 27.20, (2-(Benzyloxy)-4-(difluoromethyl)-6-hydroxyphenyl)(4-((tetrahydrofuran-3-yl)amino)-7,8-dihydropyrido[4,3-d]pyrimidin-6(5H)-yl)methanone]
1000 to 10000	COc1ccc2c(c1N[C@H]1CCOC1)CN(C(=O)c1c(O)cc(C(F)F)cc1OCc1ccccc1)CC2 [Example 4.23, (S)-(2-(Benzyloxy)-4-(difluoromethyl)-6-hydroxyphenyl)(7-methoxy-8-((tetrahydrofuran-3-yl)amino)-3,4-dihydroisoquinolin-2(1H)-yl)methanone]
< 100	CC(=O)N1CCC(Oc2ccc3c(c2)CN(C(=O)c2c(O)cc(C(F)F)cc2OCc2ccccc2)C3)CC1 [Example 29, 1-(4-((2-(2-(Benzyloxy)-4-(difluoromethyl)-6-hydroxybenzoyl)isoindolin-5-yl)oxy)piperidin-1-yl) ethan-1-one]
< 100	CN1CC(Oc2ccc3c(c2)CN(C(=O)c2c(O)cc(C(F)F)cc2OCc2ccccc2)C3)C1 [Example 4.57, (2-(Benzyloxy)-4-(difluoromethyl)-6-hydroxyphenyl)(5-((1-methylazetidin-3-yl)oxy)isoindolin-2-yl)methanone]
100 to 1000	CN1CCN(Cc2ccc3c(c2)CN(C(=O)c2c(O)cc(C(F)F)cc2OCc2ccccc2)C3)CC1 [Example 4.30, (2-(Benzyloxy)-4-(difluoromethyl)-6-hydroxyphenyl) (5-((4-methylpiperazin-1-yl)methyl)isoindolin-2-yl) methanone]
100 to 1000	CN1CC(Nc2cccc3c2CN(C(=O)c2c(O)cc(C#N)cc2OCc2ccccc2)C3)CC1=O (stereo not shown) [Example 10.3, 3-(Benzyloxy)-5-hydroxy-4-(4-((1-methyl-5-oxopyrrolidin-3-yl)amino)isoindoline-2-carbonyl)benzonitrile]
1000 to 10000	CN(C)Cc1ccc2c(n1)CN(C(=O)c1c(O)cc(Cl)cc1OCc1ccccc1)C2 [Example 10.21]
100 to 1000	CC(=O)N1CC(Nc2cccc3c2CN(C(=O)c2c(O)cc(F)cc2OCc2ccccc2)C3)C1 [Example 10.23, 1-(3-((2-(2-(Benzyloxy)-4-fluoro-6-hydroxybenzoyl)isoindolin-4-yl)amino)azetidin-1-yl)ethan-1-one]
100 to 1000	CN1CC(Oc2ccc3c(c2)CN(C(=O)c2c(O)cc(C(F)F)cc2OCc2ccccc2)CC3)C1 [Example 4.69, (2-(Benzyloxy)-4-(difluoromethyl)-6-hydroxyphenyl)(7-((1-methylazetidin-3-yl)oxy)-3,4-dihydroisoquinolin-2(1H)-yl)methanone]
100 to 1000	CN(C)Cc1ccc2c(c1)CN(C(=O)c1c(O)cc(C(F)F)cc1OCc1ccccc1)C2 [Example 4.51, (2-(Benzyloxy)-4-(difluoromethyl)-6-hydroxyphenyl)(5-((dimethylamino)methyl)isoindolin-2-yl)methanone]
< 100	CN(C)CCOc1cc2c(c(N[C@H]3CCOC3)c1)CN(C(=O)c1c(O)cc(Cl)cc1OCc1ccccc1)C2 [Example 10, (S)-(2-(Benzyloxy)-4-chloro-6-hydroxyphenyl)(6-(2-(dimethylamino)ethoxy)-4-((tetrahydrofuran-3-yl)amino)isoindolin-2-yl)methanone]
100 to 1000	O=C(c1c(O)cc(C(F)F)cc1OCc1ccccc1)N1Cc2ccc(OC3CCOCC3)cc2C1 [Example 4.78, (2-(Benzyloxy)-4-(difluoromethyl)-6-hydroxyphenyl) (5-((tetrahydro-2H-pyran-4-yl)oxy)isoindolin-2-yl)methanone]
100 to 1000	O=C(c1c(O)cc(C(F)(F)F)cc1OCc1ccccc1)N1Cc2cccc(N[C@H]3CCOC3)c2C1 [Example 23, (S)-(2-(Benzyloxy)-6-hydroxy-4-(trifluoromethyl)phenyl) (4-((tetrahydrofuran-3-yl)amino)isoindolin-2-yl) methanone]
< 100	O=C(c1c(O)cc(C(F)F)cc1OCc1ccccc1)N1CCc2cc(Cn3ccnc3)cc(N[C@H]3CCOC3)c2C1 [Example 4.22, (S)-(6-((1H-Imidazol-1-yl)methyl)-8-((tetrahydrofuran-3-yl)amino)-3,4-dihydroisoquinolin-2(1H)-yl)(2-(benzyloxy)-4-(difluoromethyl)-6-hydroxyphenyl)methanone]
100 to 1000	CN(C)CCOc1cccc2c1CCN2C(=O)c1c(O)cc(C(F)F)cc1OCc1ccccc1 [Example 27.13, (2-(Benzyloxy)-4-(difluoromethyl)-6-hydroxyphenyl)(4-(2-(dimethylamino)ethoxy)indolin-1-yl)methanone]
100 to 1000	CN1CC[C@@H](Oc2ccc3c(c2)CN(C(=O)c2c(O)cc(C#N)cc2OCc2ccccc2)C3)C1 [Example 10.30, (R)-3-(Benzyloxy)-5-hydroxy-4-(5-((1-methylpyrrolidin-3-yl)oxy)isoindoline-2-carbonyl)benzonitrile]
1000 to 10000	CN1CCC(Oc2ccc3c(c2)CCN(C(=O)c2c(O)cc(C#N)cc2OCc2ccccc2)CC3)CC1 [Example 27.6, 3-(Benzyloxy)-5-hydroxy-4-(7-((1-methylpiperidin-4-yl)oxy)-2,3,4,5-tetrahydro-1H-benzo[d]azepine-3-carbonyl)benzonitrile hydroformate]
100 to 1000	O=C(c1c(O)cc(C(F)F)cc1OCc1ccccc1)N1Cc2ccc(Oc3ccncn3)cc2C1 [Example 4.61]
1000 to 10000	N#Cc1cc(O)c(C(=O)N2Cc3cccc(NC4COC4)c3C2)c(OCc2ccccn2)c1 [Example 10.38, 3-Hydroxy-4-(4-(oxetan-3-ylamino)isoindoline-2-carbonyl)-5-(pyridin-2-ylmethoxy)benzonitrile]
100 to 1000	CN1CC[C@H](Oc2ccc3c(c2)CN(C(=O)c2c(O)cc(C#N)cc2OCc2ccccc2)C3)C1 [Example 10.31, (S)-3-(Benzyloxy)-5-hydroxy-4-(5-((1-methylpyrrolidin-3-yl)oxy)isoindoline-2-carbonyl)benzonitrile]
100 to 1000	N#Cc1cc(O)c(C(=O)N2Cc3cccc(NCc4cocn4)c3C2)c(OCc2ccccc2)c1 [Example 10.9, 3-(Benzyloxy)-5-hydroxy-4-(4-((oxazol-4-ylmethyl)amino)isoindoline-2-carbonyl)benzonitrile]
100 to 1000	O=C(c1c(O)cc(C(F)F)cc1OCc1ccccc1)N1CCc2cc(NC3CCOC3)ccc21 (single isomer, unassigned) [Example 27.5a, (S)-(2-(Benzyloxy)-4-(difluoromethyl)-6-hydroxyphenyl)(5-((tetrahydrofuran-3-yl)amino)indolin-1-yl)methanone or (R)-(2-(Benzyloxy)-4-(difluoromethyl)-6-hydroxyphenyl)(5-((tetrahydrofuran-3-yl)amino)indolin-1-yl)methanone]
100 to 1000	N#Cc1cc(O)c(C(=O)N2Cc3cccc(NC4COC4)c3C2)c(OCc2ccccc2)c1 [Example 10.26, 3-(Benzyloxy)-5-hydroxy-4-(4-(oxetan-3-ylamino)isoindoline-2-carbonyl)benzonitrile]
1000 to 10000	CNc1cccc2c1CN(C(=O)c1c(O)cc(C(F)F)cc1OCc1ccccc1)C2 [Example 4.34, (2-(Benzyloxy)-4-(difluoromethyl)-6-hydroxyphenyl) (4-(methylamino)isoindolin-2-yl) methanone]
1000 to 10000	O=C(c1c(O)cc(Cl)cc1OCc1ccccc1)N1Cc2cccc(N[C@@H]3CCOC3)c2C1 [Example 7, (R)-(2-(Benzyloxy)-4-chloro-6-hydroxyphenyl)(4-((tetrahydrofuran-3-yl)amino)isoindolin-2-yl)methanone]
1000 to 10000	O=C(c1c(O)cc(C(F)F)cc1OCc1ccccc1)N1CCc2c(NC3CCOC3)cccc21 (stereo not shown) [Example 27.24, (2-(Benzyloxy)-4-(difluoromethyl)-6-hydroxyphenyl)(4-((tetrahydrofuran-3-yl)amino)indolin-1-yl)methanone]
100 to 1000	O=C(c1c(O)cc(C(F)F)cc1OCc1ccccc1)N1CCc2ccc(Cn3ccnc3)cc2C1 [Example 4.48, (7-((1H-Imidazol-1-yl)methyl)-3,4-dihydroisoquinolin-2(1H)-yl)(2-(benzyloxy)-4-(difluoromethyl)-6-hydroxyphenyl)methanone]
100 to 1000	COc1cc2c(c(N[C@H]3CCOC3)c1)CN(C(=O)c1c(O)cc(C(F)F)cc1OCc1ccccc1)C2 [Example 4.18, (S)-(2-(Benzyloxy)-4-(difluoromethyl)-6-hydroxyphenyl)(6-methoxy-4-((tetrahydrofuran-3-yl)amino)isoindolin-2-yl)methanone]
